Source: US7091218B1 (priority 1999, dated 2006)
Where a name gives a salt, the structure may show the parent alone.

What was measured:
acetylcholinesterase = target: T1, acetylcholinesterase (Rattus norvegicus, UniProt P37136); test: biochemical; settings: rat brain homogenate as enzyme source; acetylthiocholine substrate, DTNB, absorbance at 412 nm
T1 construct: Using rat brain homogenate as a source of acetylcholinesterase; from tissue; host or cells: rat brain homogenate
T1 sequence (P37136 32-614): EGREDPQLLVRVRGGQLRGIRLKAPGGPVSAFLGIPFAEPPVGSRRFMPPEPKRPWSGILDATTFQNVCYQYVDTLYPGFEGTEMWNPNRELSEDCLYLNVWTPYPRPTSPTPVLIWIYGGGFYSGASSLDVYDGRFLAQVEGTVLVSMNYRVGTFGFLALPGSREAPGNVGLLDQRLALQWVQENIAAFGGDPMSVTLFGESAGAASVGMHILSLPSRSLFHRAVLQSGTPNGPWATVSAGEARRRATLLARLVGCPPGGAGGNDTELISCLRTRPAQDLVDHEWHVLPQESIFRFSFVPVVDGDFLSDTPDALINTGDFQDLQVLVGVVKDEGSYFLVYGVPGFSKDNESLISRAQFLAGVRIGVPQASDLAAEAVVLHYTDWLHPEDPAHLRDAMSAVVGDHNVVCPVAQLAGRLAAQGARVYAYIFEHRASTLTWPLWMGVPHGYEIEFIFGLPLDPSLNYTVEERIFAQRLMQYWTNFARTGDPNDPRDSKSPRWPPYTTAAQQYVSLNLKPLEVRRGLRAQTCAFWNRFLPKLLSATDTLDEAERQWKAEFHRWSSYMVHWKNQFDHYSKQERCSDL
Experimental: In Vitro Acetylcholinsterase Inhibitory Effect
Using rat brain homogenate as a source of acetylcholinesterase, esterase activity was assayed in accordance with the method of Ellman et al. ^1). That is, acetylthiocholin as a substrate, a test compound and DTNB (5,5′-dithiobis(2-nitrobenzoic acid)) were added to […] brain homogenate, and after incubation, the produced thiocholine was reacted with DTNB to produce a yellow product. This was measured as a change in absorbance at 412 nm to obtain acetylcholineesterase activity. The acetylcholineesterase inhibiting activity of each test compound was obtained as 50% inhibition concentration (IC50). Note that the test compounds were used after dissolving them in physiological saline. Ellman, G. L., Courtney, K. D., Andres, V. and Featherstone, R. M., (1961), Biochem. Pharmacol., 7, 88–95.

Row | Compound | melting point | IC50 (acetylcholinesterase)
1 | COc1cc2c(cc1OC)C(=O)C(CC1CCN(Cc3ccccc3)CC1)(N=[N+]=[N-])C2.Cl (stereo not drawn) | 153 to 154 °C | –
2 | COc1cc2c(cc1OC)C(=O)C(Cl)(CC1CCN(Cc3ccccc3)CC1)C2 (stereo not drawn) [Example 1, 1-Benzyl-4-[(5,6-dimethoxy-2-chloro-1-indanon)-2-yl]methylpiperidine hydrochloride] | – | 2 nM
3 | CCOc1cc2c(cc1OCC)C(=O)C(Cl)(CC1CCN(Cc3ccccc3)CC1)C2 (stereo not drawn) [Example 6, hydrochloride] | – | 2 nM
